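Briefly, cells in 96-well plates were exposed to five compound concentrations for 48 h, and endpoints were estimated by linear interpolation. GI50 = concentration required for 50% inhibition of growth.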 Calls of active or inactive are those of the source. Cut-off read from the data, not from the text of the source: active = GI50 up to about 1.1 µM and inactive = higher.
Legend:
Test in all cases: DTP human tumour cell line panel, 48 h
[1] = test system: HOP-18
[2] = test system: XF498
[3] = test system: DLD-1
[4] = test system: M19-MEL
[5] = test system: SNB-78
[6] = test system: DMS-273
[7] = test system: KM-20L2
[8] = test system: DMS-114
[9] = test system: RXF 631

## COc1c(O)c2c3c(cc(C)cc3c1C(C)C)OC2
[1]
  GI50: > 100 µM (inactive)
[2]
  GI50: > 100 µM (inactive)
[3]
  GI50: > 100 µM (inactive)
[4]
  GI50: > 100 µM (inactive)
[5]
  GI50: > 100 µM (inactive)
[6]
  GI50: > 100 µM (inactive)
[7]
  GI50: > 100 µM (inactive)

## CCN(CC)C(=O)C/C(C)=N/NC(=O)c1ccncc1
[8]
  GI50: > 100 µM (inactive)
[2]
  GI50: > 100 µM (inactive)
[3]
  GI50: > 100 µM (inactive)
[5]
  GI50: > 100 µM (inactive)
[6]
  GI50: > 100 µM (inactive)
[7]
  GI50: > 100 µM (inactive)

## CCc1cc(C)cc2[n+]1CC=C2C.[O-][Cl+3]([O-])([O-])[O-]
[1]
  GI50: 1.72 µM (inactive)
[3]
  GI50: > 100 µM (inactive)
[4]
  GI50: > 100 µM (inactive)
[5]
  GI50: > 100 µM (inactive)
[6]
  GI50: 92 µM (inactive)
[7]
  GI50: > 100 µM (inactive)

## O=C1CC(c2ccccc2)NCN1 (centres undefined)
[8]
  GI50: > 100 µM (inactive)
[1]
  GI50: > 100 µM (inactive)
[3]
  GI50: > 100 µM (inactive)
[4]
  GI50: > 100 µM (inactive)
[5]
  GI50: > 100 µM (inactive)
[6]
  GI50: > 100 µM (inactive)
[7]
  GI50: > 100 µM (inactive)

## CC1=C(c2cc(C(=O)Nc3ccc(Cl)c(Cl)c3)nc(N)n2)Sc2ccccc2N1
[8]
  GI50: > 100 µM (inactive)
[1]
  GI50: > 100 µM (inactive)
[2]
  GI50: > 100 µM (inactive)
[3]
  GI50: > 100 µM (inactive)
[4]
  GI50: > 100 µM (inactive)
[5]
  GI50: > 100 µM (inactive)
[6]
  GI50: > 100 µM (inactive)
[7]
  GI50: > 100 µM (inactive)

## COC(=O)c1ccccc1NCc1cc(O)ccc1O
[1]
  GI50: 14.5 µM (inactive)
[2]
  GI50: 17.1 µM (inactive)
[3]
  GI50: 20.2 µM (inactive)
[4]
  GI50: 17.5 µM (inactive)
[5]
  GI50: 20.3 µM (inactive)
[6]
  GI50: 51.5 µM (inactive)
[7]
  GI50: > 100 µM (inactive)

## Cc1ccc(NC(=O)C2C(=O)N(c3ccc(C)c(C)c3)C(=O)C2N=N)cc1C (centres undefined)
[8]
  GI50: 61.5 µM (inactive)
[1]
  GI50: > 100 µM (inactive)
[2]
  GI50: > 100 µM (inactive)
[9]
  GI50: > 100 µM (inactive)
[3]
  GI50: > 100 µM (inactive)
[4]
  GI50: > 100 µM (inactive)
[5]
  GI50: > 100 µM (inactive)
[6]
  GI50: 86.5 µM (inactive)
[7]
  GI50: > 100 µM (inactive)

## COc1ccc2c3c([nH]c2c1[N+](=O)[O-])C(C)N(C)CC3 (centres undefined)
[8]
  GI50: > 100 µM (inactive)
[1]
  GI50: 19.4 µM (inactive)
[2]
  GI50: > 100 µM (inactive)
[3]
  GI50: > 100 µM (inactive)
[4]
  GI50: > 100 µM (inactive)
[5]
  GI50: > 100 µM (inactive)
[6]
  GI50: > 100 µM (inactive)
[7]
  GI50: 62.4 µM (inactive)

## S=C(Nc1ccccc1)Nc1ccccc1SC(/C=C/NNC1=NN=C(c2ccccc2)C(c2ccccc2)N1)c1ccccc1 (centres undefined)
[8]
  GI50: 12.2 µM (inactive)
[2]
  GI50: > 100 µM (inactive)
[9]
  GI50: > 100 µM (inactive)
[3]
  GI50: 79.8 µM (inactive)
[4]
  GI50: > 100 µM (inactive)
[5]
  GI50: > 100 µM (inactive)
[6]
  GI50: > 100 µM (inactive)
[7]
  GI50: > 100 µM (inactive)

## O=C1[C@H](Cl)[C@H]2c3cc4ccccc4nc3Oc3ccccc3N12
[8]
  GI50: 20.9 µM (inactive)
[3]
  GI50: 84.9 µM (inactive)
[4]
  GI50: 34.8 µM (inactive)
[6]
  GI50: 33.3 µM (inactive)
[7]
  GI50: 43.4 µM (inactive)

## c1ccc2c(c1)OCCOCCOc1ccccc1OCCO2
[8]
  GI50: 84.1 µM (inactive)
[1]
  GI50: 34.2 µM (inactive)
[3]
  GI50: 61.9 µM (inactive)
[4]
  GI50: 41.9 µM (inactive)
[5]
  GI50: > 100 µM (inactive)
[6]
  GI50: 41.2 µM (inactive)
[7]
  GI50: 29.8 µM (inactive)

## Cc1nc(C(=O)O)c2ccccc2n1
[8]
  GI50: > 100 µM (inactive)
[3]
  GI50: > 100 µM (inactive)
[5]
  GI50: > 100 µM (inactive)
[6]
  GI50: > 100 µM (inactive)
[7]
  GI50: > 100 µM (inactive)

## CCN(CC)/C(=C\Cl)Nc1ccccn1.[O-][Cl+3]([O-])([O-])O
[8]
  GI50: > 100 µM (inactive)
[1]
  GI50: > 100 µM (inactive)
[2]
  GI50: > 100 µM (inactive)
[9]
  GI50: > 100 µM (inactive)
[3]
  GI50: > 100 µM (inactive)
[4]
  GI50: > 100 µM (inactive)
[5]
  GI50: > 100 µM (inactive)
[6]
  GI50: > 100 µM (inactive)
[7]
  GI50: > 100 µM (inactive)

## COc1nc(NC2OCC(OC(C)=O)C(OC(C)=O)C2OC(C)=O)c(-c2csc(N)n2)c(=O)n1C (centres undefined)
[8]
  GI50: > 100 µM (inactive)
[1]
  GI50: > 100 µM (inactive)
[9]
  GI50: > 100 µM (inactive)
[3]
  GI50: > 100 µM (inactive)
[4]
  GI50: > 100 µM (inactive)
[5]
  GI50: > 100 µM (inactive)
[7]
  GI50: > 100 µM (inactive)

## C/C(=N\NC(=O)c1ccccc1O)c1cccc(/C(C)=N/NC(=O)c2ccccc2O)n1
[8]
  GI50: 2.66 µM (inactive)
[2]
  GI50: 18.6 µM (inactive)

## CCOC1=C2C(=O)OC(=O)C2C2CCCCC2=C1 (centres undefined)
[8]
  GI50: > 100 µM (inactive)
[2]
  GI50: > 100 µM (inactive)
[3]
  GI50: > 100 µM (inactive)
[4]
  GI50: > 100 µM (inactive)
[5]
  GI50: > 100 µM (inactive)
[6]
  GI50: > 100 µM (inactive)

## CC(=O)Oc1c(C)c(-c2ccccc2)c(C)c(-c2ccccc2)c1C(=S)c1ccccc1
[1]
  GI50: > 100 µM (inactive)
[9]
  GI50: > 100 µM (inactive)
[3]
  GI50: > 100 µM (inactive)
[4]
  GI50: > 100 µM (inactive)
[5]
  GI50: > 100 µM (inactive)
[7]
  GI50: 67.3 µM (inactive)

## COc1cc2c(c(OC)c1OC)-c1ccc(SC)c(=O)cc1C(CC(=O)Oc1ccc(F)cc1)C2 (centres undefined)
[8]
  GI50: 0.26 µM (active)
[1]
  GI50: 0.53 µM (active)
[2]
  GI50: 0.318 µM (active)
[3]
  GI50: 0.288 µM (active)
[4]
  GI50: 0.236 µM (active)
[5]
  GI50: 0.142 µM (active)
[6]
  GI50: 0.193 µM (active)
[7]
  GI50: 0.124 µM (active)

## CC(C)Cn1cnc2c(Sc3c([N+](=O)[O-])ncn3C)nc(N)nc21
[8]
  GI50: > 100 µM (inactive)
[4]
  GI50: > 100 µM (inactive)
[5]
  GI50: > 100 µM (inactive)
[6]
  GI50: > 100 µM (inactive)
[7]
  GI50: > 100 µM (inactive)

## O=C(N/C(=C\c1ccc(/C=C(\NC(=O)c2ccccc2)c2nc3cc(Cl)ccc3[nH]2)cc1)c1nc2cc(Cl)ccc2[nH]1)c1ccccc1
[8]
  GI50: 22.9 µM (inactive)
[1]
  GI50: 8.91 µM (inactive)
[2]
  GI50: 35.1 µM (inactive)
[3]
  GI50: 27.7 µM (inactive)
[4]
  GI50: 32.2 µM (inactive)
[5]
  GI50: > 100 µM (inactive)
[6]
  GI50: 13.8 µM (inactive)
[7]
  GI50: 18 µM (inactive)

## O=C1C2CCN(CC2)C1CN1CCOCC1 (centres undefined)
[1]
  GI50: 7.59 µM (inactive)
[2]
  GI50: 5.05 µM (inactive)
[9]
  GI50: 16.9 µM (inactive)
[3]
  GI50: 1.65 µM (inactive)
[4]
  GI50: 13.4 µM (inactive)
[5]
  GI50: 20.7 µM (inactive)
[6]
  GI50: 11.8 µM (inactive)
[7]
  GI50: 18.2 µM (inactive)

## O=C(O)c1c2c(c(C(=O)O)c3ccccc13)-c1ccccc1-2
[8]
  GI50: 74.1 µM (inactive)
[1]
  GI50: 20.4 µM (inactive)
[2]
  GI50: 35.5 µM (inactive)
[3]
  GI50: 41.4 µM (inactive)
[4]
  GI50: 69 µM (inactive)
[5]
  GI50: 71.1 µM (inactive)
[6]
  GI50: 49.3 µM (inactive)
[7]
  GI50: 42.7 µM (inactive)

## O=C(CO)C1CC2C=CC1C2 (centres undefined)
[8]
  GI50: > 100 µM (inactive)
[2]
  GI50: > 100 µM (inactive)
[9]
  GI50: > 100 µM (inactive)
[4]
  GI50: > 100 µM (inactive)
[5]
  GI50: > 100 µM (inactive)
[6]
  GI50: > 100 µM (inactive)

## Cc1cccc(C)c1NC(=O)CCCC(=O)C(C#N)c1ccccc1 (centres undefined)
[2]
  GI50: > 10 µM (inactive)
[9]
  GI50: > 100 µM (inactive)
[3]
  GI50: > 100 µM (inactive)
[4]
  GI50: > 100 µM (inactive)
[5]
  GI50: > 100 µM (inactive)
[6]
  GI50: > 10 µM (inactive)
[7]
  GI50: > 10 µM (inactive)

## COc1cc2c(cc1OC)[Se]c1cc(OC)c(OC)cc1[Se]2
[8]
  GI50: 5.61 µM (inactive)
[1]
  GI50: 16.6 µM (inactive)
[2]
  GI50: > 10 µM (inactive)
[3]
  GI50: > 10 µM (inactive)
[4]
  GI50: > 10 µM (inactive)
[5]
  GI50: > 10 µM (inactive)
[6]
  GI50: 38.1 µM (inactive)
[7]
  GI50: > 10 µM (inactive)

## O=C(CSc1nnc[nH]1)C[P+](c1ccccc1)(c1ccccc1)c1ccccc1
[8]
  GI50: 97.1 µM (inactive)
[2]
  GI50: 85.1 µM (inactive)
[3]
  GI50: > 100 µM (inactive)
[4]
  GI50: > 100 µM (inactive)
[5]
  GI50: > 100 µM (inactive)
[6]
  GI50: > 100 µM (inactive)
[7]
  GI50: > 100 µM (inactive)

## Cc1cc(CS(=O)(=O)/C=C/c2ccccc2[N+](=O)[O-])c(CS(=O)(=O)/C=C/c2ccccc2[N+](=O)[O-])cc1C
[8]
  GI50: 45.1 µM (inactive)
[2]
  GI50: 15.5 µM (inactive)
[4]
  GI50: > 100 µM (inactive)
[5]
  GI50: 23 µM (inactive)
[6]
  GI50: > 100 µM (inactive)
[7]
  GI50: > 100 µM (inactive)

From ChEMBL document CHEMBL1201862, “PubChem BioAssay data set” (2004)
